Earlier results, collected in patent US11737458B2, “Fibrous substrate for capture of gram negative bacteria” (Kimberly-Clark Worldwide, Inc., priority 2015, dated 2023).

C=CC(=O)O [acrylic acid]
pKa value: about 4.3
